From patent US7341717B2, “Therapeutic targets for treatment of HCV infections, methods of treating HCV infections and compounds useful therefor” (priority 2001, dated 2008)

Tests used:
[1] = tested on: HCV replicon (subgenomic HCV RNA, NS5a); assay: HCV replicon RNA (Northern blot) and NS5a protein (Western blot) levels in HuH7 replicon cell lines; assay type: cell-based, Hepatitis C virus; conditions: for effect like all-trans-retinoic acid (GI-GPx upregulation, reduction of HCV RNA and NS5a): alone or in combination with each other or with selenium or a selenium salt; for reduction of HCV load: replicon cells
Description: The HuH7 pcDNA3 control cells and the replicon cell lines 5-15, 11-7 and 9-13 were plated as described in legend to FIG. 1 and after three days (Day 0) treated for two (Day 2) and four days (Day 4) with 1000U/ml interferon α (IFN-α). Then, cultures were harvested and RNA was prepared. 10 μg of total RNA were used for Northern blot analysis. For detection of GI-GPx (A) Probe 1 was used (see FIG. 1). The membranes were stripped and successively hybridized with probes for PKR (B) and neomycin phosphotransferase (Neo)(C). […]
(§1) Western blot analysis was performed using an NS5a antibody (FIG. 5). Expression of the transduced GI-GPx cDNA was monitored with a GI-GPx-specific antiserum (FIG. 6).
(§2) Replicon cells were incubated with alpha interferon (IFN-α) for two and four days. Northern blot analyses were performed with 10 μg total RNA. […] Interferon had no effect on the expression of GI-GPx in mock transfected HuH7 cells (cf FIG. 4).
(§3) As a model system for HCV replication there were utilized three replicon cell lines provided by Prof. R. Bartenschlager (University of Heidelberg, Germany). Cultures were treated for various periods of time with all trans-retinoic acid (RA) for comparative purposes and the other agents selenium, selenium salts, Vitamin D3 and retinoids, like 9-cis-retinoic acid, C1-C10 alkyl esters of 9-cis-retinoic acid, C1-C10 alkyl amides of 9-cis-retinoic acid, N-(4-hydroxyphenyl) retinamide (4-HPR), 6-[3-(1-adamantyl)-4-hydroxyphenyl]-2-naphthalene carboxylic acid (CD437; AHPN) (obtained from Sigma), paraquat, 4-[E-2-(5,6,7,8-tetrahydro-5,5,8,8-tetramethyl-2-naphthalenyl)-1-propenyl]benzoic acid, 4-hydroxyphenylretinamide, and 4-[(5,6,7,8-tetrahydro-5,5,8,8-tetramethyl-2-naphtalenyl)carboxamido]benzoic acid.
(§4) Levels of GI-GPx protein expression were measured by Western Blotting using antibodies provided by Prof. Brigelius-Flohe (University of Potsdam, Germany), and RNA levels were measured by Northern blotting using GI-GPx-specific oligonucleotides as probes. Levels of HCV RNA were investigated by Northern Blotting using a DNA oligonucleotide complementary to the neomycin phosphotransferase gene as probe. Concentration of the viral protein NS5a was determined by Western Blotting with an NS5a-specific antibody (Biogenesis, UK).

GI-GPx [2] = assay: GI-GPx RNA and protein expression in HuH7 replicon cell lines; assay type: cell-based, human
Description: (§5) The HuH7 pcDNA3 control cells and the replicon cell lines 5-15, 11-7 and 9-13 were plated as described in legend to FIG. 1 and after three days (Day 0) treated for two (Day 2) and four days (Day 4) with 1000U/ml interferon α (IFN-α). Then, cultures were harvested and RNA was prepared. 10 μg of total RNA were used for Northern blot analysis. For detection of GI-GPx (A) Probe 1 was used (see FIG. 1). The membranes were stripped and successively hybridized with probes for PKR (B) and neomycin phosphotransferase (Neo)(C).
as §1
The x-ray films were densitometrically scanned and the NS5a values compared with untransfected control cells (set as 100%) (FIG. 5) and the GI-GPx values compared with the maximum expression of the transduced GI-GPx cDNA obtained seven days post infection (set as 100%) (FIG. 6).
as §2, §3, §4

[3] = tested on: PKR (double strand RNA-dependent protein kinase); assay: Transcription of PKR in replicon cells; assay type: cell-based, human
Description: as §5
This fact implies that downregulation of HCV was promoted firstly by activation of the GI-GPx gene on transcriptional level by retinoic acid and secondly by the synthesis of selenoprotein(s) for which sodium selenite was needed. Indeed it could be shown that all-trans-retinoic acid-induced downregulation of HCV is independent of the innate immune response induced by interferon.

replicon cells = assay: Cytotoxic effects in replicon cells; assay type: cell-based, human
Source text: As a model system for HCV replication there were utilized three replicon cell lines provided by Prof. R. Bartenschlager (University of Heidelberg, Germany).

HuH 11-7 replicon cells = assay: Paraquat sensitivity, Alamar Blue viability assay; assay type: cell-based, human; conditions: HuH 11-7, 24 hours, three independent experiments
Description: (§6) Cells were plated in 96-well microtiter plates (5×10^3 cells/0.35 cm^2) and after three days treated for 24 hours with the concentration of paraquat depicted. Cell viability was measured utilizing an Alamar-Blue assay and is reflected by relative fluorescence units (RFU) at 405 nm.
(§7) Replicon cell lines and control cells were incubated for 24 hours with various concentrations of paraquat (methylviologen), and viability of the cultures was measured using the Alamar Blue assay.
(§8) For quantification of the degree of cell death in cell culture we employed the viability assay based on the reduction of tetrazolium salt to formazan by mitochondrial dehydrogenase activity. The assay was performed in 96-well microtiter plates (Greiner, Frickenhausen, Germany) as described previously (T. Herget et al., 1998, J. Neurochem., 70: 47-58) but Alamar Blue (Roche Molecular Biochemicals, Germany) was used instead of MTT. The light absorbance at 405 nm of the medium including all factors but without cells was determined and subtracted from the absorption readings with cells. Eight wells per sample point were analyzed and each experiment was repeated independently at least three times.

HuH 5-15 replicon cells = assay: Paraquat sensitivity, Alamar Blue viability assay; assay type: cell-based, human; conditions: HuH 5-15, 24 hours, three independent experiments
Description: as §6, §7, §8

HuH 9-13 replicon cells = assay: Paraquat sensitivity, Alamar Blue viability assay; assay type: cell-based, human; conditions: HuH 9-13, 24 hours, three independent experiments
Description: as §6, §7, §8

HuH pcDNA3 control cells = assay: Paraquat sensitivity, Alamar Blue viability assay; assay type: cell-based, human; conditions: 24 hours, three independent experiments
Description: as §6, §7, §8

GI-GPx [4] = assay: GI-GPx expression in mock transfected HuH7 cells; assay type: cell-based, human
Description: as §5, §2

Compound | effect like all-trans-retinoic acid (GI-GPx upregulation, reduction of HCV RNA and NS5a) [1] | reduction of HCV load [1] | further results
CC1=C(/C=C/C(C)=C/C=C/C(C)=C/C(=O)Nc2ccc(O)cc2)C(C)(C)CCC1 [4-HPR, N-(4-hydroxyphenyl) retinamide] | showed a similar effect | capable of reducing HCV load | –
CC1(C)CCC(C)(C)c2cc(C(=O)Nc3ccc(C(=O)O)cc3)ccc21 [4-[(5,6,7,8-tetrahydro-5,5,8,8-tetramethyl-2-naphthalenyl)carboxamido]benzoic acid] | showed a similar effect | capable of reducing HCV load | –
C/C(=C\c1ccc(C(=O)O)cc1)c1ccc2c(c1)C(C)(C)CCC2(C)C [4-[E-2-(5,6,7,8-tetrahydro-5,5,8,8-tetramethyl-2-naphthalenyl)-1-propenyl]benzoic acid] | showed a similar effect | capable of reducing HCV load | –
CC1=C(/C=C/C(C)=C\C=C\C(C)=C\C(=O)O)C(C)(C)CCC1 [9-cis retinoic acid] | showed a similar effect | capable of reducing HCV load | –
CC1=C(/C=C/C(C)=C/C=C/C(C)=C\C(=O)O)C(C)(C)CCC1 [13-cis retinoic acid] | showed a similar effect | capable of reducing HCV load | –
O=C(O)c1ccc2cc(-c3ccc(O)c(C45CC6CC(CC(C6)C4)C5)c3)ccc2c1 [CD437, 6-[3-(1-adamantyl)-4-hydroxyphenyl]-2-naphthalene carboxylic acid] | showed a similar effect | capable of reducing HCV load | –
CC1=C(/C=C/C(C)=C/C=C/C(C)=C/C(=O)O)C(C)(C)CCC1 [all-trans-retinoic acid] | – | – | downregulation of subgenomic HCV RNA and viral protein NS5a ([1]; 1 μM, seven days, depending on the cell line): two- to five-fold; effect on HCV expression ([1]; 1 μM, three days): hardly any effect; reduction of HCV RNA and HCV NS5a protein ([1]; six days, in the presence of selenium or a selenium salt like sodium selenite): two-to five-fold; up-regulation of GI-GPx, RNA and protein level (GI-GPx [2]; 1 μM, seven days of incubation): three- to ten-fold; effect on GI-GPx expression (GI-GPx [2]; 1 μM, three days): hardly any effect; GI-GPx RNA and protein (GI-GPx [2]; six days): upregulation; induction of transcription of PKR [3]: did not induce; toxic effects (replicon cells; six days, in the presence of selenium or a selenium salt): absence of toxic effects
CCOC(=O)/C=C(C)/C=C/C=C(C)/C=C/c1c(C)cc(OC)c(C)c1C [etretinate] | showed a similar effect | capable of reducing HCV load | –
C[n+]1ccc(-c2cc[n+](C)cc2)cc1 [paraquat] | showed a similar effect | capable of reducing HCV load | LD50 for paraquat (HuH 11-7 replicon cells): 310 ± 65 µM; LD50 for paraquat (HuH 5-15 replicon cells): 270 ± 75 µM; LD50 for paraquat (HuH 9-13 replicon cells): 260 ± 50 µM; LD50 for paraquat (HuH pcDNA3 control cells): 1250 ± 120 µM
CC1=C(/C=C/C(C)=C/C=C/C(C)=C/C=O)C(C)(C)CCC1 [retinoic acid adlehyde] | showed a similar effect | capable of reducing HCV load | –
CC1=C(/C=C/C(C)=C/C=C/C(C)=C/CO)C(C)(C)CCC1 [retinol] | showed a similar effect | capable of reducing HCV load | –
O=[Se](O)O [sodium selenite] | – | – | severe cytotoxic effects (replicon cells; alone or both in combination): neither observed
IFN-α | – | – | HCV-replicon RNA and HCV protein NS5a level ([1]; 1000 U/ml, two and four days): time- and dose-dependent down-regulation; GI-GPx expression (GI-GPx [2]; replicon cells, within four days of interferon treatment, 1000 U/ml): up-regulated; GI-GPx expression (GI-GPx [4]): no effect
